# Test results: patent US9878992B2, “GDF-8 inhibitors” (Rigel Pharmaceuticals, Inc., priority 2012, dated 2018)
# Target: MAP4K4 (Homo sapiens, UniProt O95819)
# Test: MAP4K4 inhibition
# Type: biochemical
# Conditions: not given
# From the text: Such compounds are particularly useful in muscle disorders, such as cachexia and sarcopenia as MAP4K4 acts as a suppressor of skeletal muscle differentiation. See, Wang M, Amano S U, Flach R J, Chawla A, Aouadi M, Czech P. Molecular and cellular biology. 2013 February; 33(4): 678-87.
# MAP4K4, sequence (O95819 whole entry, species assumed): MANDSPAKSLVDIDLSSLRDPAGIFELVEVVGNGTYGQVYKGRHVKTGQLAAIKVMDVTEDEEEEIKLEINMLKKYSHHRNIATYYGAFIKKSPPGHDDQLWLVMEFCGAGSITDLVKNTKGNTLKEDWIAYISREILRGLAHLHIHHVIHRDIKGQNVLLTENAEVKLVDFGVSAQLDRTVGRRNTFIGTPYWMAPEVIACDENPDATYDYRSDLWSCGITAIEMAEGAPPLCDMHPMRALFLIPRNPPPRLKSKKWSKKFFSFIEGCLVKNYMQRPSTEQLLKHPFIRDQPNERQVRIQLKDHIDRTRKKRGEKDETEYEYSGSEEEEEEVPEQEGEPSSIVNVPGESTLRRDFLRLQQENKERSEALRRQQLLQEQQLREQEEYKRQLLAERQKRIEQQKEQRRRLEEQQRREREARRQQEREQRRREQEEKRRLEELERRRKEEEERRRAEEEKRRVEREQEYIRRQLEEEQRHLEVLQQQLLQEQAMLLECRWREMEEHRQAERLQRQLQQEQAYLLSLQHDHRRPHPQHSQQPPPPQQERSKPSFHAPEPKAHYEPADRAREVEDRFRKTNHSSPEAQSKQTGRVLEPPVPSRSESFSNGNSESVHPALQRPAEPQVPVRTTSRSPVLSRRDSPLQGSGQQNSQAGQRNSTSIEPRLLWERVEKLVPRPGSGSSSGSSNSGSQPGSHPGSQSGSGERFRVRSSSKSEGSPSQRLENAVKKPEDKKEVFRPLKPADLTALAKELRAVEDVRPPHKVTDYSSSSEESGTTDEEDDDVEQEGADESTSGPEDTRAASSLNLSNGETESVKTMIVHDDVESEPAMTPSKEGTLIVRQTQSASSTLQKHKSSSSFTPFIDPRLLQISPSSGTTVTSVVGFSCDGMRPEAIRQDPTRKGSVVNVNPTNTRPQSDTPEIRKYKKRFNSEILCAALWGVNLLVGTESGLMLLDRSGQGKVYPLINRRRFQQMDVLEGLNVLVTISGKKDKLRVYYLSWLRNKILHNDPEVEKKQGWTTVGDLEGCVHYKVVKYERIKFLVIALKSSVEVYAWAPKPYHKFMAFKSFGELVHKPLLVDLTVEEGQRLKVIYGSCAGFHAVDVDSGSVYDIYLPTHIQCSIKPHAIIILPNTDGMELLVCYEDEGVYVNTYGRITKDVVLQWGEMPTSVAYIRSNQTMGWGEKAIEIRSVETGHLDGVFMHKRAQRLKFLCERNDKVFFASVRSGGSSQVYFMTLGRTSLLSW
row,IC50 [nM],SMILES
1,< 500,"Cc1cc(-c2ncccc2-c2ccc3[nH]ncc3c2)ccc1F [Compound 63, 5-(2-(4-Fluoro-3-methylphenyl)pyridin-3-yl)-1H-indazole]"
2,< 500,"O=c1nc[nH]c2ccc(-c3cccnc3-c3cccc(Cl)c3)cc12 [Compound 389, 6-(2-(3-Chlorophenyl)pyridin-3-yl)quinazolin-4(1H)-one]"
3,< 500,"Nc1ncnc2ccc(-c3cccnc3-c3ccc(F)c(Cl)c3)cc12 [Compound 448, 6-(2-(3-Chloro-4-fluorophenyl)pyridin-3-yl)quinazolin-4-amine]"
4,< 500,"Nc1ncnc2ccc(-c3cccnc3-c3cc(F)cc(Cl)c3)cc12 [Compound 460, 6-(2-(3-Chloro-5-fluorophenyl)pyridin-3-yl)quinazolin-4-amine]"
5,< 500,"Nc1ncnc2ccc(-c3cccnc3-c3cc(Cl)ccc3F)cc12 [Compound 818, 6-(2-(5-Chloro-2-fluorophenyl)pyridin-3-yl)quinazolin-4-amine]"

# More lines, now with the values behind:
row,SMILES,IC50 [nM]
1,"Nc1ncnc2ccc(-c3cccnc3-c3cccc(O)c3)cc12 [Compound 456, 3-(3-(4-Aminoquinazolin-6-yl)pyridin-2-yl)phenol]",< 500
2,"Nc1ncnc2ccc(-c3cccnc3-c3cc(O)cc(F)c3)cc12 [Compound 494, 3-(3-(4-Aminoquinazolin-6-yl)pyridin-2-yl)-5-fluorophenol]",< 500

# Tested on: GDF8 signaling
# Test: AlphaScreen SureFire SMAD3 (p-Ser423/425) assay, GDF8-stimulated cells
# Type: cell-based
# Conditions: Mus musculus, MPC-11, inhibition of GDF8 signaling; pSMAD readout; MPC11; read-out: GDF pSMAD (MPC11)
# From the text: [The procedure below names another cell line; the source lists this cell line under the same test.] The p-SMAD-3 (Ser423/425) SureFire® assay has been designed to measure the phosphorylation of endogenous cellular p-SMAD-3 (Ser423/425) in cell lysates and is a system for the screening of both modulators of receptor activation (e.g. agonists and antagonists) as well as agents acting intracellularly, such as small molecule inhibitors of upstream events. The assay will measure p-SMAD-3 (Ser423/425) activation by either cloned or endogenous receptors, and can be applied to primary cells.
# P-SMAD-3 (Ser423/425) SureFire® Assay Protocols
# Step A: Preparation of Buffers
# 1× Lysis buffer: 1 ml of 5× Lysis buffer was diluted with 4 ml of sterile water. After dilution, excess 1× Lysis buffer can be frozen and thawed up to 5 times without loss in activity.
# Activation buffer: The buffer was warmed slowly to 37° C. and gently mixed to re-suspend. Activation buffer can be stored at room temperature with no loss in activity.
# Reaction buffer: The buffer was kept at 4° C. while in use.
# AlphaScreen® Protein A IgG Kit: The kit was stored at 4° C. in the dark.
# Reaction buffer+Activation buffer+AlphaScreen® Acceptor beads: Reaction buffer (40 parts), Activation Buffer (10 parts) and Acceptor beads (1 part) were mixed and the mixture was stored at room temperature and used the same day. Mixture was added to 384-well plates; excess mixture was discarded.
# Dilution buffer+AlphaScreen® Donor beads: Dilution buffer (20 parts) and Donor beads (1 part) were mixed and the mixture was stored at room temperature and used the same day. Excess mixture was discarded.
# Assay control samples: After reconstitution in 250 μl of water, lysates were at −20° C. in single use aliquots.
# Step B: Preparation of Samples and Cells
# 96-well Assay Protocol for 293FT and RMS13 adherent cells can be carried out manually or in high throughput with liquid handling robots.
# The cells (80 μL, of cells for 96 well plates) were plated in collagen coated tissue culture plates in RPMI or FreeStyle medium (Invitrogen) and incubated overnight. For manual analysis, 6 plates for GDF8, 6 plates for TGFβ, and optionally 6 plates for Alk5ca (ALK5 constitutively active) were used.
# The compound dilution plates were prepared as follows: 12 μL of DMSO was transferred into first column of 96-well plate, and 16 μL of DMSO was transferred into columns 2-12 of the 96-well plate. 12 μL of compound solution was transferred into first column of the DMSO-containing 96-well plate. Three-fold dilution was performed up to column 10 of the DMSO-containing 96-well plate.
# Step C: Treatment and Analysis
# The plate containing cells were treated with compounds for about 10 minutes, and then ligand was added. GDF8 or TGFb was added to plates to stimulate. 293FL cells were stimulated for 90 minutes at 37° C.; and RMS13 cells were stimulated for 60 minutes at 37° C. The medium was then removed from the cells, and 1× Lysis Buffer (about 25 μL) was added and the plate was gently agitated on plate shaker for 5-10 minutes.
# The lysate (5 μL) was then placed into 384-well shallow plates avoiding the generation of bubbles. To this, the Reaction Buffer+Activation Buffer+AlphaScreen® Acceptor beads mixture (5 μL) was added. The plate was sealed with adhesive cover and shielded from light (e.g., with metal foil), and agitated gently on plate shaker for 2 hours at room temperature.
# Dilution buffer+AlphaScreen® Donor beads (2 μL) was then added, and the plate was intubated on the plate shaker for an additional 1½ hours. After completion, the plate was read on Synergy-4 or Enspire plate reader, using AlphaScreen® pSMAD3® settings.
row,IC50 [nM],SMILES
1,2040,"Cc1cc(-c2ncccc2-c2ccc3ncccc3c2)ccc1F [Compound 207, 6-(2-(4-Fluoro-3-methylphenyl)pyridin-3-yl)quinoline]"
2,1150,"Cc1cccc(-c2ncccc2-c2ccc3ncccc3c2)c1 [Compound 208, 6-(2-m-Tolylpyridin-3-yl)quinoline]"
3,2560,"Cc1cc(-c2ncccc2-c2ccc3ncnc(N4CCOCC4)c3c2)ccc1F [Compound 385, 4-(6-(2-(4-Fluoro-3-methylphenyl)pyridin-3-yl)quinazolin-4-yl)morpholine]"
4,207,"Fc1ccc(Cl)cc1-c1ncccc1-c1ccc2nccn2n1 [Compound 937, 6-(2-(5-Chloro-2-fluorophenyl)pyridin-3-yl)imidazo[1,2-b]pyridazine]"

# The remaining lines, values behind:
row,SMILES,IC50 [nM]
1,"Cc1cc(-c2ncc(F)cc2-c2ccc3[nH]ncc3c2)ccc1F [Compound 10, 5-(5-Fluoro-2-(4-fluoro-3-methylphenyl)pyridin-3-yl)-1H-indazole]",535
2,Cc1cccc(-c2ncccc2-c2ccc3ncn(CCCON)c3c2)c1 [Compound 38],3230
3,"Cc1cc(-c2ncccc2-c2ccc3nn(COP(=O)(O)O)cc3c2)ccc1F [Compound 172, [5-(2-(4-Fluoro-3methylphenyl)pyridin-3-yl)-2H-indazol-2-yl]methyl dihydrogen phosphate]",187
4,"Cc1cc(-c2ncc(CO)cc2-c2ccc3nccnc3c2)ccc1F [Compound 222, (6-(4-Fluoro-3-methylphenyl)-5-(quinoxalin-6-yl)pyridin-3-yl)methanol]",5620
5,"COc1ncnc2ccc(-c3cccnc3-c3cccc(O)c3)cc12 [Compound 378, 3-(3-(4-Methoxyquinazolin-6-yl)pyridin-2-yl)phenol]",558
6,"Cc1cc(-c2ncccc2-c2ccc3ncnc(OCCN4CCOCC4)c3c2)ccc1F [Compound 425, 4-(2-((6-(2-(4-Fluoro-3-methylphenyl)pyridin-3-yl)quinazolin-4-yl)oxy)ethyl)morpholine]",537
7,"COc1cc(-c2cnc3ccc(-c4cccnc4-c4ccc(F)c(C)c4)cn23)cc(OC)c1OC [Compound 577, 6-(2-(4-Fluoro-3-methylphenyl)pyridin-3-yl)-3-(3,4,5-trimethoxyphenyl)imidazo[1,2-a]pyridine]",2260
8,"[2H]C([2H])([2H])c1cccc(-c2ncccc2-c2ccc3ncc(C(C)=O)n3c2)c1 [Compound 606, 1-(6-(2-(3-(Methyl-d3)phenyl)pyridin-3-yl)imidazo[1,2-a]pyridin-3-yl)ethan-1-one]",1440
9,"Cc1cc(-c2ncccc2-c2ccc3ncc(C(=O)N[C@@H]4C[C@@H]5CCCN5C(C)(C)C4)n3c2)ccc1F [Compound 744, N-((7R,8aS)-5,5-Dimethyloctahydroindolizin-7-yl)-6-(2-(4-fluoro-3-methylphenyl)pyridin-3-yl)imidazo[1,2-a]pyridine-3-carboxamide]",968
10,"Cc1cc(-c2ncccc2-c2ccn3ncc(C(=O)N[C@@H]4C[C@@H]5CCCN5C(C)(C)C4)c3c2)ccc1F [Compound 745, N-((7R,8aS)-5,5-Dimethyloctahydroindolizin-7-yl)-5-(2-(4-difluoro-3-methylphenyl)pyridin-3-yl)pyrazolo[1,5-a]pyridine-3-carboxamide]",366
